IC50, EC50 and selectivity ratio data for 14 compounds are collected here from ChEMBL document CHEMBL5579861, “Cytotoxic Peptaibols from Trichoderma guizhouense, a Fungus Isolated from an Urban Soil Sample” (J Nat Prod, 2024).

Data set [1] relates to SK-OV-3. The data set can be described thus: Cytotoxicity against human SK-OV-3 cells assessed as reduction in cell viability after 24 hrs by MTT assay. The class given is functional, cell-based. The conditions noted are these: SK-OV-3, 24 h. On the technique in general: Formazan colour is commonly taken as a measure of viable cells.
The subject of data set [2] is SK-HEP1. The data set can be described thus: Cytotoxicity against human SK-HEP1 cells assessed as reduction in cell viability after 24 hrs by MTT assay. The conditions noted are these: SK-HEP1, 24 h. The class given is functional, cell-based.
The test system of data set [3] is MDA-MB-231. The data set is described as follows: Cytotoxicity against human MDA-MB-231 cells assessed as reduction in cell viability after 24 hrs by MTT assay. The conditions noted are these: MDA-MB-231, 24 h. The class given is functional, cell-based.
Data set [4] concerns HCT-116. The data set is described as follows: Cytotoxicity against human HCT-116 cells assessed as reduction in cell viability after 24 hrs by MTT assay. To be noted: HCT-116, 24 h. It is filed as functional, cell-based.
Data set [5] has as its system DU-145. The data set is described as follows: Cytotoxicity against human DU-145 cells assessed as reduction in cell viability after 24 hrs by MTT assay. The class given is functional, cell-based. The conditions noted are these: DU-145, 24 h.
Data set [6] has as its system Plasmodium falciparum. The data set can be described thus: Antimalarial activity against Plasmodium falciparum Dd2 assessed as reduction in parasite growth incubated for 72 hrs by SYBR Green I staining based assay. The conditions noted are these: Dd2, 72 h. It is filed as functional, organism-based.
Data set [7] can be described thus: Cytotoxicity against human HepG2 cells assessed as reduction in cell viability after 48 hrs by MTS assay. It is filed as toxicity, cell-based.
Data set [8] in a line: Selectivity index, ratio of EC50 for cytotoxicity against human HepG2 cells to EC50 for antimalarial activity against Plasmodium falciparum Dd2. To be noted: read-out: Ratio EC50. It is filed as toxicity, cell-based.

Molecules are shown by their SMILES. Non-standard residues stand in square brackets, D forms with d. Residues, ends and D or L forms follow the SMILES beside them. *: point of attachment. Leu(ol) = CC(C)C[C@H](N)CO; dIva = CC[C@@](C)(N)C(=O)O; Valol = CC(C)[C@@H](CO)N*; Aib = CC(C)(N)C(=O)O

The IC50 is the concentration that gives 50% inhibition. Consider `CC[C@@](C)(NC(=O)[C@H](C)NC(=O)[C@H](CO)NC(=O)C(C)(C)NC(C)=O)C(=O)N[C@](C)(CC)C(=O)N[C@@H](CCC(N)=O)C(=O)N[C@](C)(CC)C(=O)N[C@@H](CC(C)C)C(=O)NC(C)(C)C(=O)N[C@@H](C)C(=O)NC(C)(C)C(=O)NC(C)(C)C(=O)N1CCC[C@H]1C(=O)N[C@@H](CC(C)C)C(=O)NC(C)(C)C(=O)NC(C)(C)C(=O)N[C@@H](CCC(N)=O)C(=O)N[C@H](CO)C(C)C`, for which the IC50 in data set [1] came out at 0.91 µM; in data set [2] it was 0.91 µM; in data set [3] it was 0.68 µM; in data set [4] it was 0.71 µM; in data set [5] it was 1.4 µM.

In the case of `CC[C@H](C)[C@H](NC(=O)C(C)(C)NC(=O)[C@@H]1CCCN1C(=O)C(C)(C)NC(=O)[C@@H](NC(=O)[C@H](C)NC(=O)[C@@H]1CCCN1C(=O)C(C)(C)NC(=O)[C@H](CC(C)C)NC(=O)[C@H](CCC(N)=O)NC(=O)C(C)(C)NC(C)=O)C(C)C)C(=O)NC(C)(C)C(=O)N1CCC[C@H]1C(=O)N[C@H](CO)C(C)C` (Ac-[Aib]QL[Aib]PAV[Aib]P[Aib]I[Aib]P-Valol), the concentration for half-maximal inhibition (IC50) in data set [1] came out at 7.8 µM; in data set [2], 11 µM; in data set [3] it was 4.6 µM; in data set [4] it was 9.5 µM; in data set [5], 16 µM.

`CC(=O)NC(C)(C)C(=O)N[C@@H](CCC(N)=O)C(=O)N[C@@H](CC(C)C)C(=O)NC(C)(C)C(=O)N1CCC[C@H]1C(=O)N[C@@H](C)C(=O)N[C@H](C(=O)NC(C)(C)C(=O)N1CCC[C@H]1C(=O)NC(C)(C)C(=O)N[C@H](C(=O)NC(C)(C)C(=O)N1CCC[C@H]1C(=O)N[C@H](CO)CC(C)C)C(C)C)C(C)C` (Ac-[Aib]QL[Aib]PAV[Aib]P[Aib]V[Aib]P[Leu(ol)]): the IC50 in data set [1] was determined as 5.3 µM; in data set [2], 8.9 µM; in data set [3], 6.4 µM; in data set [4], 7.1 µM; in data set [5] it was 11 µM.

For the compound `CC[C@H](C)[C@H](NC(=O)C(C)(C)NC(=O)[C@@H]1CCCN1C(=O)C(C)(C)NC(=O)[C@@H](NC(=O)[C@H](C)NC(=O)[C@@H]1CCCN1C(=O)C(C)(C)NC(=O)[C@H](CC(C)C)NC(=O)[C@H](CCC(N)=O)NC(=O)[C@@](C)(CC)NC(C)=O)C(C)C)C(=O)NC(C)(C)C(=O)N1CCC[C@H]1C(=O)N[C@H](CO)CC(C)C`, the 50% inhibitory concentration (IC50) was over 50 µM in data set [1]; 4.8 µM in data set [2]; 20 µM in data set [3]; 16 µM in data set [4]; over 50 µM in data set [5].

In the case of `CC[C@@](C)(NC(=O)[C@H](C)NC(=O)[C@H](C)NC(=O)C(C)(C)NC(C)=O)C(=O)N[C@](C)(CC)C(=O)N[C@@H](CCC(N)=O)C(=O)N[C@](C)(CC)C(=O)N[C@@H](CC(C)C)C(=O)NC(C)(C)C(=O)N[C@@H](C)C(=O)NC(C)(C)C(=O)NC(C)(C)C(=O)N1CCC[C@H]1C(=O)N[C@@H](CC(C)C)C(=O)NC(C)(C)C(=O)NC(C)(C)C(=O)N[C@@H](CCC(N)=O)C(=O)N[C@H](CO)C(C)C`, the IC50 in data set [1] was found to be 2.9 µM; in data set [2], 0.97 µM; in data set [3], 0.85 µM; in data set [4], 0.83 µM; in data set [5] it was 4.5 µM.

A word on the EC50: it is the concentration giving half of the maximal effect. As to `CC[C@H](C)[C@H](NC(=O)[C@H](CC(C)C)NC(=O)[C@H](CCC(N)=O)NC(=O)[C@@](C)(CC)NC(C)=O)C(=O)NC(C)(C)C(=O)N1CCC[C@H]1C(=O)N[C@](C)(CC)C(=O)N[C@@H](CC(C)C)C(=O)NC(C)(C)C(=O)N1CCC[C@H]1C(=O)N[C@H](CO)CC(C)C` (Ac-[dIva]QLI[Aib]P[dIva]L[Aib]P[Leu(ol)]), the EC50 in data set [6] came out at 0.1 µM. For the same compound, the EC50 at 48 h in data set [7] was over 25 µM. The selectivity ratio in data set [8] was over 250.

On to `CC[C@@](C)(NC(C)=O)C(=O)N[C@@H](CCC(N)=O)C(=O)N[C@@H](CC(C)C)C(=O)NC(C)(C)C(=O)N1CCC[C@H]1C(=O)N[C@@H](C)C(=O)N[C@H](C(=O)NC(C)(C)C(=O)N1CCC[C@H]1C(=O)N[C@@H](CC(C)C)C(=O)N[C@@H](CC(C)C)C(=O)NC(C)(C)C(=O)N1CCC[C@H]1C(=O)N[C@H](CO)CC(C)C)C(C)C`, for which the 50% inhibitory concentration (IC50) in data set [1] was found to be 15 µM; in data set [2], 19 µM; in data set [3] it was 14 µM; in data set [4], 14 µM; in data set [5], 25 µM.

Turning to `CC[C@@](C)(NC(C)=O)C(=O)N[C@@H](CCC(N)=O)C(=O)N[C@@H](CC(C)C)C(=O)NC(C)(C)C(=O)N1CCC[C@H]1C(=O)N[C@@H](C)C(=O)N[C@H](C(=O)NC(C)(C)C(=O)N1CCC[C@H]1C(=O)N[C@](C)(CC)C(=O)N[C@@H](CC(C)C)C(=O)NC(C)(C)C(=O)N1CCC[C@H]1C(=O)N[C@H](CO)CC(C)C)C(C)C`, the IC50 amounted to 4.3 µM in data set [1]; 4.3 µM in data set [2]; 5.9 µM in data set [3]; 2.7 µM in data set [4]; 9.2 µM in data set [5].

As for `CC[C@H](C)[C@H](NC(=O)C(C)(C)NC(=O)[C@@H]1CCCN1C(=O)C(C)(C)NC(=O)[C@@H](NC(=O)[C@H](C)NC(=O)[C@@H]1CCCN1C(=O)C(C)(C)NC(=O)[C@H](CC(C)C)NC(=O)[C@H](CCC(N)=O)NC(=O)C(C)(C)NC(C)=O)C(C)C)C(=O)NC(C)(C)C(=O)N1CCC[C@H]1C(=O)N[C@H](CO)CC(C)C` (Ac-[Aib]QL[Aib]PAV[Aib]P[Aib]I[Aib]P[Leu(ol)]), the half-inhibitory concentration (IC50) in data set [1] is 24 µM; in data set [2], 31 µM; in data set [3], 37 µM; in data set [4] it was 16 µM; in data set [5], 36 µM.

With `CC(=O)O[C@@]12CO[C@@H]1C[C@H](O)[C@@]1(C)C(=O)[C@H](O)C3=C(C)[C@@H](OC(=O)[C@H](O)[C@@H](NC(=O)OC(C)(C)C)c4ccccc4)C[C@@](O)([C@@H](OC(=O)c4ccccc4)[C@H]21)C3(C)C` [DOCETAXEL ANHYDROUS], the 50% inhibitory concentration (IC50) in data set [1] amounted to 0.05 µM; in data set [2], 0.03 µM; in data set [3] it was 0.17 µM; in data set [5] it was 0.04 µM.

`CC[C@H](C)[C@H](NC(=O)[C@@](C)(CC)NC(=O)[C@@H]1CCCN1C(=O)C(C)(C)NC(=O)[C@@H](NC(=O)[C@H](C)NC(=O)[C@@H]1CCCN1C(=O)C(C)(C)NC(=O)[C@H](CC(C)C)NC(=O)[C@H](CCC(N)=O)NC(=O)C(C)(C)NC(C)=O)C(C)C)C(=O)NC(C)(C)C(=O)N1CCC[C@H]1C(=O)N[C@H](CO)CC(C)C`: the concentration for half-maximal inhibition (IC50) in data set [1] was 3.8 µM; in data set [2] it was 3.8 µM; in data set [3], 4.3 µM; in data set [4], 3 µM; in data set [5], 10 µM.

For `CC[C@H](C)[C@H](NC(=O)[C@@](C)(CC)NC(=O)[C@@H]1CCCN1C(=O)C(C)(C)NC(=O)[C@@H](NC(=O)[C@H](C)NC(=O)[C@@H]1CCCN1C(=O)C(C)(C)NC(=O)[C@H](CC(C)C)NC(=O)[C@H](CCC(N)=O)NC(=O)[C@@](C)(CC)NC(C)=O)C(C)C)C(=O)NC(C)(C)C(=O)N1CCC[C@H]1C(=O)N[C@H](CO)CC(C)C`, the half-inhibitory concentration (IC50) in data set [1] turned out to be 9.2 µM; in data set [2], 8 µM; in data set [3] it was 5.5 µM; in data set [4] it was 4.8 µM; in data set [5] it was 20 µM.

Regarding `CC[C@H](C)[C@H](NC(=O)[C@@](C)(CC)NC(=O)[C@@H]1CCCN1C(=O)C(C)(C)NC(=O)[C@@H](NC(=O)[C@H](C)NC(=O)[C@@H]1CCCN1C(=O)C(C)(C)NC(=O)[C@H](CC(C)C)NC(=O)[C@H](CCC(N)=O)NC(=O)C(C)(C)NC(C)=O)C(C)C)C(=O)NC(C)(C)C(=O)N1CCC[C@H]1C(=O)N[C@H](CO)C(C)C`, the 50% inhibitory concentration (IC50) in data set [1] was found to be 3.8 µM; in data set [2] it was 4.6 µM; in data set [3], 3.9 µM; in data set [4] it was 3.5 µM; in data set [5] it was 9.3 µM.

On to `CC[C@@](C)(NC(=O)[C@H](C)NC(=O)[C@H](CO)NC(=O)C(C)(C)NC(C)=O)C(=O)N[C@](C)(CC)C(=O)N[C@@H](CCC(N)=O)C(=O)N[C@](C)(CC)C(=O)N[C@@H](CC(C)C)C(=O)NC(C)(C)C(=O)N[C@@H](C)C(=O)NC(C)(C)C(=O)NC(C)(C)C(=O)N1CCC[C@H]1C(=O)N[C@@H](CC(C)C)C(=O)NC(C)(C)C(=O)NC(C)(C)C(=O)N[C@@H](CCC(N)=O)C(=O)N[C@H](COC(C)=O)C(C)C`, for which the IC50 in data set [1] turned out to be 2.9 µM; in data set [2], 2.1 µM; in data set [3] it was 0.84 µM; in data set [4], 0.88 µM; in data set [5], 1.5 µM.
